Source: ChEMBL document CHEMBL3352542, “Synthesis, biological evaluation and molecular modeling study of 2-(1,3,4-thiadiazolyl-thio and 4-methyl-thiazolyl-thio)-quinazolin-4-ones as a new class of DHFR inhibitors” (Bioorg Med Chem Lett, 2014)
Calls of active or inactive are those of the source. No cut-off for these calls is given here.

What was measured:
COLO 205 = test: Growth inhibition of human COLO205 cells at 10 uM after 48 hrs; type: functional
HOP-92 = test: Growth inhibition of human HOP92 cells at 10 uM after 48 hrs; type: functional
RXF 393 = test: Growth inhibition of human RXF393 cells at 10 uM after 48 hrs; type: functional
Escherichia coli = test: Antimicrobial activity against Escherichia coli assessed as inhibition zone at 200 ug/disk after 24 hrs by disc-diffusion method; type: functional; conditions: read-out: IZ
MOLT-4 = test: Growth inhibition of human MOLT4 cells at 10 uM after 48 hrs; type: functional
U-251 = test: Growth inhibition of human U251 cells at 10 uM after 48 hrs; type: functional
HL-60(TB) = test: Growth inhibition of human HL-60(TB) cells at 10 uM after 48 hrs; type: functional
Malme-3M = test: Growth inhibition of human MALME-3M cells at 10 uM after 48 hrs; type: functional
UACC-257 = test: Growth inhibition of human UACC257 cells at 10 uM after 48 hrs; type: functional
SR = test: Growth inhibition of human SR cells at 10 uM after 48 hrs; type: functional
RPMI-8226 = test: Growth inhibition of human RPMI8226 cells at 10 uM after 48 hrs; type: functional
T47D = test: Growth inhibition of human T47D cells at 10 uM after 48 hrs; type: functional
HCT-15 = test: Growth inhibition of human HCT15 cells at 10 uM after 48 hrs; type: functional
Hs-578T = test: Growth inhibition of human Hs 578T cells at 10 uM after 48 hrs; type: functional
Pseudomonas aeruginosa = test: Antimicrobial activity against Pseudomonas aeruginosa assessed as inhibition zone at 200 ug/disk after 24 hrs by disc-diffusion method; type: functional; conditions: read-out: IZ
KM12 = test: Growth inhibition of human KM12 cells at 10 uM after 48 hrs; type: functional
SNB-19 = test: Growth inhibition of human SNB19 cells at 10 uM after 48 hrs; type: functional
HCT-116 = test: Growth inhibition of human HCT116 cells at 10 uM after 48 hrs; type: functional
HT-29 = test: Growth inhibition of human HT-29 cells at 10 uM after 48 hrs; type: functional
NCI-H460 = test: Growth inhibition of human NCI-H460 cells at 10 uM after 48 hrs; type: functional
OVCAR-5 = test: Growth inhibition of human OVCAR5 cells at 10 uM after 48 hrs; type: functional
PC-3 = test: Growth inhibition of human PC3 cells at 10 uM after 48 hrs; type: functional
Dihydrofolate reductase = target: T1, Dihydrofolate reductase (Bos taurus, UniProt P00376); test: Inhibition of bovine liver DHFR
T1 sequence (P00376 whole entry): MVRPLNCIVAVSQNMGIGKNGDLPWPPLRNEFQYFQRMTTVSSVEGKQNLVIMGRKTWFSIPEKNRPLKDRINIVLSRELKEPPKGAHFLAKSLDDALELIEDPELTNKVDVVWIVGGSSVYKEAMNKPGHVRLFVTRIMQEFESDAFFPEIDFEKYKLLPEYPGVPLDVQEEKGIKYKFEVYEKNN

Bacillus subtilis = test: Antimicrobial activity against Bacillus subtilis assessed as inhibition zone at 200 ug/disk after 24 hrs by disc-diffusion method; type: functional; conditions: read-out: IZ
NCI-H23 = test: Growth inhibition of human NCI-H23 cells at 10 uM after 48 hrs; type: functional
BT-549 = test: Growth inhibition of human BT549 cells at 10 uM after 48 hrs; type: functional
HCC 2998 = test: Growth inhibition of human HCC2998 cells at 10 uM after 48 hrs; type: functional
CAKI-1 = test: Growth inhibition of human CAKI-1 cells at 10 uM after 48 hrs; type: functional
MDA-MB-435 = test: Growth inhibition of human MDA-MB-435 cells at 10 uM after 48 hrs; type: functional
Staphylococcus aureus = test: Antimicrobial activity against Staphylococcus aureus assessed as inhibition zone at 200 ug/disk after 24 hrs by disc-diffusion method; type: functional; conditions: read-out: IZ
TK-10 = test: Growth inhibition of human TK10 cells at 10 uM after 48 hrs; type: functional
OVCAR-4 = test: Growth inhibition of human OVCAR4 cells at 10 uM after 48 hrs; type: functional
CCRF-CEM = test: Growth inhibition of human CCRF-CEM cells at 10 uM after 48 hrs; type: functional
UACC-62 = test: Growth inhibition of human UACC62 cells at 10 uM after 48 hrs; type: functional
SW-620 = test: Growth inhibition of human SW620 cells at 10 uM after 48 hrs; type: functional
OVCAR-8 = test: Growth inhibition of human OVCAR8 cells at 10 uM after 48 hrs; type: functional
A498 = test: Growth inhibition of human A498 cells at 10 uM after 48 hrs; type: functional
Candida albicans = test: Antimicrobial activity against Candida albicans assessed as inhibition zone at 200 ug/disk after 24 hrs by disc-diffusion method; type: functional; conditions: read-out: IZ
SF-539 = test: Growth inhibition of human SF539 cells at 10 uM after 48 hrs; type: functional
K562 = test: Growth inhibition of human K562 cells at 10 uM after 48 hrs; type: functional
786-0 = test: Growth inhibition of human 786-0 cells at 10 uM after 48 hrs; type: functional
SF-268 = test: Growth inhibition of human SF268 cells at 10 uM after 48 hrs; type: functional
UO-31 = test: Growth inhibition of human UO31 cells at 10 uM after 48 hrs; type: functional
SNB-75 = test: Growth inhibition of human SNB75 cells at 10 uM after 48 hrs; type: functional
MCF7 = test: Growth inhibition of human MCF7 cells at 10 uM after 48 hrs; type: functional
NCI/ADR-RES = test: Growth inhibition of human NCI-ADR-RES cells at 10 uM after 48 hrs; type: functional
SF-295 = test: Growth inhibition of human SF295 cells at 10 uM after 48 hrs; type: functional
M14 = test: Growth inhibition of human M14 cells at 10 uM after 48 hrs; type: functional
SK-MEL-5 = test: Growth inhibition of human SK-MEL-5 cells at 10 uM after 48 hrs; type: functional
NCI-H522 = test: Growth inhibition of human NCI-H522 cells at 10 uM after 48 hrs; type: functional
MDA-MB-468 = test: Growth inhibition of human MDA-MB-468 cells at 10 uM after 48 hrs; type: functional
SN12C = test: Growth inhibition of human SN12C cells at 10 uM after 48 hrs; type: functional
LOX IMVI = test: Growth inhibition of human LOXIMVI cells at 10 uM after 48 hrs; type: functional
MDA-MB-231 = test: Growth inhibition of human MDA-MB-231 cells at 10 uM after 48 hrs; type: functional
ACHN = test: Growth inhibition of human ACHN cells at 10 uM after 48 hrs; type: functional
NCI-H226 = test: Growth inhibition of human NCI-H226 cells at 10 uM after 48 hrs; type: functional
A549 = test: Growth inhibition of human A549 cells at 10 uM after 48 hrs; type: functional
OVCAR-3 = test: Growth inhibition of human OVCAR3 cells at 10 uM after 48 hrs; type: functional

## COc1ccc(-n2c(Sc3sc(N)nc3C)nc3cc(OC)c(OC)cc3c2=O)cc1
COLO 205
  growth inhibition (GI): inactive
HOP-92
  growth inhibition (GI): inactive
RXF 393
  growth inhibition (GI): inactive
Escherichia coli
  zone of inhibition at 200 µg/disc: 8 mm
MOLT-4
  growth inhibition (GI): inactive
U-251
  growth inhibition (GI): inactive
HL-60(TB)
  growth inhibition (GI): inactive
Malme-3M
  growth inhibition (GI): inactive
UACC-257
  growth inhibition (GI): inactive
SR
  growth inhibition (GI): inactive
RPMI-8226
  growth inhibition (GI): inactive
T47D
  growth inhibition (GI): inactive
HCT-15
  growth inhibition (GI): inactive
Hs-578T
  growth inhibition (GI): inactive
Pseudomonas aeruginosa
  zone of inhibition at 200 µg/disc: 8 mm
KM12
  growth inhibition (GI): inactive
SNB-19
  growth inhibition (GI): inactive
HCT-116
  growth inhibition (GI): inactive
HT-29
  growth inhibition (GI): inactive
NCI-H460
  growth inhibition (GI): inactive
OVCAR-5
  growth inhibition (GI): inactive
PC-3
  growth inhibition (GI): inactive
Dihydrofolate reductase
  IC50: 1000 nM
Bacillus subtilis
  zone of inhibition at 200 µg/disc: 8 mm
NCI-H23
  growth inhibition (GI): inactive
BT-549
  growth inhibition (GI): inactive
HCC 2998
  growth inhibition (GI): inactive
CAKI-1
  growth inhibition (GI): inactive
MDA-MB-435
  growth inhibition (GI): inactive
Staphylococcus aureus
  zone of inhibition at 200 µg/disc: 8 mm
TK-10
  growth inhibition (GI): inactive
OVCAR-4
  growth inhibition (GI): inactive
CCRF-CEM
  growth inhibition (GI): inactive
UACC-62
  growth inhibition (GI): inactive
SW-620
  growth inhibition (GI): inactive
OVCAR-8
  growth inhibition (GI): inactive
A498
  growth inhibition (GI): inactive
Candida albicans
  zone of inhibition at 200 µg/disc: 8 mm
SF-539
  growth inhibition (GI): inactive
K562
  growth inhibition (GI): inactive
786-0
  growth inhibition (GI): inactive
SF-268
  growth inhibition (GI): inactive
UO-31
  growth inhibition (GI): inactive
SNB-75
  growth inhibition (GI): inactive
MCF7
  growth inhibition (GI): inactive
NCI/ADR-RES
  growth inhibition (GI): inactive
SF-295
  growth inhibition (GI): inactive
M14
  growth inhibition (GI): inactive
SK-MEL-5
  growth inhibition (GI): inactive
NCI-H522
  growth inhibition (GI): inactive
MDA-MB-468
  growth inhibition (GI): inactive
SN12C
  growth inhibition (GI): inactive
LOX IMVI
  growth inhibition (GI): inactive
MDA-MB-231
  growth inhibition (GI): inactive
ACHN
  growth inhibition (GI): inactive
NCI-H226
  growth inhibition (GI): inactive
A549
  growth inhibition (GI): inactive
OVCAR-3
  growth inhibition (GI): inactive
